Patent EP2970215B1, “PYRROLIDINE DERIVATIVES, PHARMACEUTICAL COMPOSITIONS CONTAINING THEM, AND THEIR USE IN THERAPY” (AbbVie Deutschland GmbH & Co. KG, priority 2013, dated 2014)

The molecules below were run against T1, human GlyT1c transporter (Homo sapiens, UniProt P48067) (assay: Radioligand binding assay using recombinant CHO cell membranes expressing human GlyT1). Conditions: radioligand binding to human GlyT1c transporter-expressing membranes.
T1 construct: expressed in transfected cells; host or cells: CHO cells (recombinant; line hGlyT1c_5_CHO is named for the uptake assay)
T1 sequence (P48067 1-706): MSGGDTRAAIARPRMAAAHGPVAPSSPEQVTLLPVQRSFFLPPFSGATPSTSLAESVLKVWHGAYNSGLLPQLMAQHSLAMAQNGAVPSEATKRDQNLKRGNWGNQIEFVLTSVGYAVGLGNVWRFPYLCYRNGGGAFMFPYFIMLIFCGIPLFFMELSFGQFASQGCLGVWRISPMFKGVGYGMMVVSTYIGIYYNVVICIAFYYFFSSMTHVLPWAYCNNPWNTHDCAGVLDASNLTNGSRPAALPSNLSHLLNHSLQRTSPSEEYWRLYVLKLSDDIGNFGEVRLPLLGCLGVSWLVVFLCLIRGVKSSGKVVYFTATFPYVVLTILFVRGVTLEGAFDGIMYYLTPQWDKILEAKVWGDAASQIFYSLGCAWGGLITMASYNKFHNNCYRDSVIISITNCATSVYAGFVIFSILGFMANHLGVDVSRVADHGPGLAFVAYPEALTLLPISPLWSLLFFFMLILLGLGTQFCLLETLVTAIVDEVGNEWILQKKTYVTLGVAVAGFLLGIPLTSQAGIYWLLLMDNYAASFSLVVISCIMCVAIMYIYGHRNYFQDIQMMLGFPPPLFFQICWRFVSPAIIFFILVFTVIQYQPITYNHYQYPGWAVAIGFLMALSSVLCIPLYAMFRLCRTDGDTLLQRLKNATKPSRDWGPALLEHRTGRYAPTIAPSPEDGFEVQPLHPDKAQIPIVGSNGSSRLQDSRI
Description: 2. Radioligand binding assays using recombinant CHO cell membranes expressing human GlyT1: […]

Compound	Ki [nM]
Cn1cnc(S(=O)(=O)N2C[C@H](Nc3ccc(F)cn3)[C@@H](c3ccc(F)cc3)C2)c1 [Example 737, 5-fluoro-N-{(3R,4S)-4-(4-fluorophenyl)-1-[(1-methyl-1H-imidazol-4-yl)sulfonyl]pyrrolidin-3-yl}pyridin-2-amine]	≤ 100
CC(=O)CCC(=O)N[C@H]1CN(S(=O)(=O)c2cn(C)cn2)C[C@@H]1c1ccc(F)cc1 [Example 738, N-{(3R,4S)-4-(4-fluorophenyl)-1-[(1-methyl-1H-imidazol-4-yl)sulfonyl]pyrrolidin-3-yl}-4-oxopentanamide]	> 10000
Cn1cnc(S(=O)(=O)N2C[C@H](NCCCCC(C)(F)F)[C@@H](c3ccc(F)cc3)C2)c1 [Example 739, (3R,4S)-N-(5,5-difluorohexyl)-4-(4-fluorophenyl)-1-[(1-methyl-1H-imidazol-4-yl)sulfonyl]pyrrolidin-3-amine]	≤ 100
Cn1cnc(S(=O)(=O)N2C[C@H](OCCNc3ccc(Cl)cc3)[C@@H](c3ccc(F)cc3)C2)c1 [Example 740, 4-chloro-N-[2-({(3R,4S)-4-(4-fluorophenyl)-1-[(1-methyl-1H-imidazol-4-yl)sulfonyl]pyrrolidin-3-yl}oxy)ethyl]aniline]	≤ 10000
Cn1cnc(S(=O)(=O)N2C[C@@H](Nc3ccc(F)c(OC(F)(F)F)c3)[C@H](C3CCCCO3)C2)c1 (stereo partly drawn) [Example 741, (3S,4R)-N-[4-fluoro-3-(trifluoromethoxy)phenyl]-1-[(1-methyl-1H-imidazol-4-yl)sulfonyl]-4-(tetrahydro-2H-pyran-2-yl)pyrrolidin-3-amine]	≤ 100
Cn1cnc(S(=O)(=O)N2C[C@H](NC(=O)NCc3ccccc3)[C@@H](c3ccc(F)cc3)C2)c1 [Example 742, 1-benzyl-3-{(3R,4S)-4-(4-fluorophenyl)-1-[(1-methyl-1H-imidazol-4-yl)sulfonyl]pyrrolidin-3-yl}urea]	≤ 1000
Cc1cc(N[C@H]2CN(S(=O)(=O)c3cn(C)cn3)C[C@@H]2c2ccc(F)cc2)ccc1Cl [Example 743, (3R,4S)-N-(4-chloro-3-methylphenyl)-4-(4-fluorophenyl)-1-[(1-methyl-1H-imidazol-4-yl)sulfonyl]pyrrolidin-3-amine]	≤ 100
Cn1cnc(S(=O)(=O)N2C[C@H](Nc3cccc(OCC(F)(F)F)c3)[C@@H](c3ccc(F)cc3)C2)c1 [Example 744, (3R,4S)-4-(4-fluorophenyl)-1-[(1-methyl-1H-imidazol-4-yl)sulfonyl]-N-[3-(2,2,2-trifluoroethoxy)phenyl]pyrrolidin-3-amine]	≤ 10
Cn1cnc(S(=O)(=O)N2C[C@H](Nc3ccc(F)c(-c4ccncc4)c3)[C@@H](c3ccc(F)cc3)C2)c1 [Example 746, (3R,4S)-4-(4-fluorophenyl)-N-[4-fluoro-3-(pyridin-4-yl)phenyl]-1-[(1-methyl-1H-imidazol-4-yl)sulfonyl]pyrrolidin-3-amine]	≤ 10
Cc1cc(N[C@H]2CN(S(=O)(=O)c3cn(C)cn3)C[C@@H]2c2ccc(F)cc2)ccc1F [Example 747, (3R,4S)-N-(4-fluoro-3-methylphenyl)-4-(4-fluorophenyl)-1-[(1-methyl-1H-imidazol-4-yl)sulfonyl]pyrrolidin-3-amine]	≤ 10
Cn1cnc(S(=O)(=O)N2C[C@H](Nc3ccc(F)c(-c4cncnc4)c3)[C@@H](c3ccc(F)cc3)C2)c1 [Example 749, (3R,4S)-4-(4-fluorophenyl)-N-[4-fluoro-3-(pyrimidin-5-yl)phenyl]-1-[(1-methyl-1H-imidazol-4-yl)sulfonyl]pyrrolidin-3-amine]	≤ 10
Cn1cnc(S(=O)(=O)N2C[C@H](Nc3cc(-c4cccnc4)ccn3)[C@@H](c3ccc(F)cc3)C2)c1 [Example 750, N-{(3R,4S)-4-(4-fluorophenyl)-1-[(1-methyl-1H-imidazol-4-yl)sulfonyl]pyrrolidin-3-yl}-3,4'-bipyridin-2'-amine]	≤ 100
Cn1cnc(S(=O)(=O)N2C[C@H](Nc3cc(-c4ccncc4)ccn3)[C@@H](c3ccc(F)cc3)C2)c1 [Example 751, N-{(3R,4S)-4-(4-fluorophenyl)-1-[(1-methyl-1H-imidazol-4-yl)sulfonyl]pyrrolidin-3-yl}-4,4'-bipyridin-2-amine]	≤ 100
Cn1cnc(S(=O)(=O)N2C[C@H](Nc3ccc(Cl)c(C(F)(F)F)c3)[C@@H](c3cocn3)C2)c1 [Example 753]	≤ 1000

Next, values leading:

Ki [nM]	Compound
≥ 10000	Cc1nc(S(=O)(=O)N2C[C@H](Nc3ccc(F)c(F)c3)[C@@H](c3ccc(F)cc3)C2)cn1C [Example 755, (3R,4S)-N-(3,4-difluorophenyl)-1-[(1,2-dimethyl-1H-imidazol-4-yl)sulfonyl]-4-(4-fluorophenyl)pyrrolidin-3-amine]
≤ 10000	Cc1nc(S(=O)(=O)N2C[C@H](Nc3ccc(F)c(C(F)(F)F)c3)[C@@H](c3ccc(F)cc3)C2)cn1C [Example 756, (3R,4S)-1-[(1,2-dimethyl-1H-imidazol-4-yl)sulfonyl]-4-(4-fluorophenyl)-N-[4-fluoro-3-(trifluoromethyl)phenyl]pyrrolidin-3-amine]
≤ 10000	Cc1ncc(S(=O)(=O)N2C[C@H](Nc3ccc(F)c(C(F)(F)F)c3)[C@@H](c3ccc(F)cc3)C2)n1C [Example 758, (3R,4S)-1-[(1,2-dimethyl-1H-imidazol-5-yl)sulfonyl]-4-(4-fluorophenyl)-N-[4-fluoro-3-(trifluoromethyl)phenyl]pyrrolidin-3-amine]
> 10000	Cc1nc(S(=O)(=O)N2C[C@H](Nc3cc(C(F)(F)F)c(Cl)cn3)[C@@H](c3ccc(F)cc3)C2)cn1C [Example 760, 5-chloro-N-[(3R,4S)-1-[(1,2-dimethyl-1H-imidazol-4-yl)sulfonyl]-4-(4-fluorophenyl)pyrrolidin-3-yl]-4-(trifluoromethyl)pyridin-2-amine]
≤ 100	Cn1cnc(S(=O)(=O)N2C[C@H](Nc3cccc(OCc4ccccc4)c3)[C@@H](c3ccccc3)C2)c1 [Example 773, (3R,4S)-N-[3-(benzyloxy)phenyl]-1-[(1-methyl-1H-imidazol-4-yl)sulfonyl]-4-phenylpyrrolidin-3-amine]
≤ 100	Cn1cnc(S(=O)(=O)N2C[C@H](Nc3cc(OCc4ccccc4)ncn3)[C@@H](c3ccc(F)cc3)C2)c1 [Example 774, 6-(benzyloxy)-N-{(3R,4S)-4-(4-fluorophenyl)-1-[(1-methyl-1H-imidazol-4-yl)sulfonyl]pyrrolidin-3-yl}pyrimidin-4-amine]
≤ 10	Cn1cnc(S(=O)(=O)N2C[C@H](Nc3cc(OCc4ccccc4)c(F)cn3)[C@@H](c3ccccc3)C2)c1 [Example 776, 4-(benzyloxy)-5-fluoro-N-{(3R,4S)-1-[(1-methyl-1H-imidazol-4-yl)sulfonyl]-4-phenylpyrrolidin-3-yl}pyridin-2-amine]
≤ 10000	Cn1cnc(S(=O)(=O)N2C[C@H](Nc3cc(OCC4CCNC4)ncn3)[C@@H](c3ccc(F)cc3)C2)c1 (stereo partly drawn) [Example 779, N-{(3R,4S)-4-(4-fluorophenyl)-1-[(1-methyl-1H-imidazol-4-yl)sulfonyl]pyrrolidin-3-yl}-6-(pyrrolidin-3-ylmethoxy)pyrimidin-4-amine]
≤ 10000	Cn1cnc(S(=O)(=O)N2C[C@H](Nc3cc(OCC4CCCN4)ncn3)[C@@H](c3ccc(F)cc3)C2)c1 (stereo partly drawn) [Example 780, N-{(3R,4S)-4-(4-fluorophenyl)-1-[(1-methyl-1H-imidazol-4-yl)sulfonyl]pyrrolidin-3-yl}-6-(pyrrolidin-2-ylmethoxy)pyrimidin-4-amine]
≤ 100	Cn1cnc(S(=O)(=O)N2C[C@H](Nc3nccc(C(F)(F)F)c3F)[C@@H](c3ccc(F)cc3)C2)c1 [Example 796, 3-fluoro-N-{(3R,4S)-4-(4-fluorophenyl)-1-[(1-methyl-1H-imidazol-4-yl)sulfonyl]pyrrolidin-3-yl}-4-(trifluoromethyl)pyridin-2-amine]
≤ 10000	Cn1cnc(S(=O)(=O)N2C[C@H](OCC(=O)NCC(F)F)[C@@H](c3ccc(F)cc3)C2)c1 [Example 797, N-(2,2-difluoroethyl)-2-({(3R,4S)-4-(4-fluorophenyl)-1-[(1-methyl-1H-imidazol-4-yl)sulfonyl]pyrrolidin-3-yl}oxy)acetamide]
≤ 10	Cn1cnc(S(=O)(=O)N2C[C@H](Nc3cccc(-c4ccccn4)c3)[C@@H](c3ccc(F)cc3)C2)c1 [Example 801, (3R,4S)-4-(4-fluorophenyl)-1-[(1-methyl-1H-imidazol-4-yl)sulfonyl]-N-[3-(pyridin-2-yl)phenyl]pyrrolidin-3-amine]
≤ 100	Cn1cnc(S(=O)(=O)N2C[C@H](Nc3cccc(-c4ccccn4)c3)[C@@H](c3ccccc3)C2)c1 [Example 802, (3R,4S)-1-[(1-methyl-1H-imidazol-4-yl)sulfonyl]-4-phenyl-N-[3-(pyridin-2-yl)phenyl]pyrrolidin-3-amine]
≤ 10	Cn1cnc(S(=O)(=O)N2C[C@H](Nc3cc(OCC(F)(F)F)c(F)cn3)[C@@H](c3ccccc3)C2)c1 [Example 803, 5-fluoro-N-{(3R,4S)-1-[(1-methyl-1H-imidazol-4-yl)sulfonyl]-4-phenylpyrrolidin-3-yl}-4-(2,2,2-trifluoroethoxy)pyridin-2-amine]
